Measured values published in the supplement of paper PMC5579334.
± gives the standard deviation of the averaged measurements.

Assays:
[1] = system: HS-PSS; assay: drug sensitivity score (DSS, CellTiter-Glo viability, 72 h) (DSS (dimensionless)); higher = more sensitive; extreme values may be limits of the assay
Summary of the method: (§1)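 For this screen, 384-well plates were preprinted with each compound at five concentrations in 10-fold steps and seeded with MPNST cell lines or primary human Schwann cells at 750–1000 cells per well. Incubation lasted 72 h at 37 °C, 5% CO2, and CellTiter-Glo ATP luminescence, scaled between vehicle and positive-control wells and averaged over duplicates where available, served as viability. Logistic fits with four parameters were applied. Relative IC50 (censored at the top concentration) and drug sensitivity score derive from these fits, and percent inhibition is at the top concentration.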

[2] = system: HS-Sch-2; assay: as above
Summary of the method: as §1

[3] = system: HSC1 (primary human Schwann cells); assay: as above
Summary of the method: as §1

[4] = system: HSC2 (primary human Schwann cells); assay: as above
Summary of the method: as §1

[5] = system: S1507-2; assay: as above
Summary of the method: as §1

[6] = system: S462; assay: as above
Summary of the method: as §1

[7] = system: ST8814; assay: as above
Summary of the method: as §1

[8] = system: STS26T; assay: as above
Summary of the method: as §1

[9] = system: YST-1; assay: as above
Summary of the method: as §1

[10] = system: HS-PSS; assay: drug sensitivity score (DSS, CellTox-Green cytotoxicity, 72 h) (DSS (dimensionless)); higher = more cytotoxic; extreme values may be limits of the assay
Summary of the method: (§2)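 MPNST cell lines and primary human Schwann cells were grown for 72 h at 37 °C in 384-well plates containing five 10-fold compound dilutions. CellTox-Green, added before seeding at a final 1:1000 dilution, gave fluorescence from DNA released by disrupted cells, and signals were scaled to vehicle and positive-control wells. Curves were fitted with a four-parameter logistic model. Drug sensitivity score and relative IC50 come from these fits, with IC50 censored at the top concentration.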

[11] = system: HSC1 (primary human Schwann cells); assay: as above
Summary of the method: as §2

[12] = system: HSC2 (primary human Schwann cells); assay: as above
Summary of the method: as §2

[13] = system: S1507-2; assay: as above
Summary of the method: as §2

[14] = system: ST8814; assay: as above
Summary of the method: as §2

[15] = system: STS26T; assay: as above
Summary of the method: as §2

[16] = system: HS-PSS; assay: % inhibition of CellTiter-Glo viability at highest tested concentration (72 h), relative to DMSO and benzethonium chloride controls; higher = more inhibition
Summary of the method: as §1

[17] = system: HS-Sch-2; assay: as above
Summary of the method: as §1

[18] = system: HSC1 (primary human Schwann cells); assay: as above
Summary of the method: as §1

[19] = system: HSC2 (primary human Schwann cells); assay: as above
Summary of the method: as §1

[20] = system: S1507-2; assay: as above
Summary of the method: as §1

[21] = system: S462; assay: as above
Summary of the method: as §1

[22] = system: ST8814; assay: as above
Summary of the method: as §1

[23] = system: STS26T; assay: as above
Summary of the method: as §1

[24] = system: YST-1; assay: as above
Summary of the method: as §1

SMILES | drug sensitivity score [1] | drug sensitivity score [2] | drug sensitivity score [3] | drug sensitivity score [4] | drug sensitivity score [5] | drug sensitivity score [6] | drug sensitivity score [7] | drug sensitivity score [8] | drug sensitivity score [9] | drug sensitivity score [10] | drug sensitivity score [11] | drug sensitivity score [12] | drug sensitivity score [13] | drug sensitivity score [14] | drug sensitivity score [15] | % inhibition [16] [%] | % inhibition [17] [%] | % inhibition [18] [%] | % inhibition [19] [%] | % inhibition [20] [%] | % inhibition [21] [%] | % inhibition [22] [%] | % inhibition [23] [%] | % inhibition [24] [%]
COC(=O)c1ccc2c(c1)NC(=O)/C2=C(\Nc1ccc(N(C)C(=O)CN2CCN(C)CC2)cc1)c1ccccc1 [Nintedanib] (max concentration tested 10000 nM) | 1.83 | 2.94 | 0 | 0 | 0 | 0 | 0 | 0 | 3.79 | 0.43 | 0 | 0 | 0 | 0 | 0 | 45.7 | 63.5 | 0.553 | -4.16 | -3.03 ± 4 | -7.48 ± 1.2 | 2.22 | 2.06 | 39.7
O=C(O)CCCc1ccc(N(CCCl)CCCl)cc1 [Chlorambucil] (max concentration tested 10000 nM) | 0 | 0 | 0.621 | 0.471 | 0 | 0 | 0 | 0 | 0.78 | 0 | 0 | 0 | 0 | 0 | 0 | 3.62 | 1.59 | 24.7 | 21.9 | -14.4 ± 0.28 | -2.04 ± 1.9 | -14.6 | -3.28 | 18.1
Cn1c(=O)c(F)c(Nc2ccc(I)cc2F)c2c(=O)n(C[C@@H](O)CO)cnc21 [TAK-733] (max concentration tested 1000 nM) | 4.36 | 5.75 | 6.66 | 6.21 | 7.362 ± 0.071 | 10.3 ± 0.6 | 9.73 | 6.24 | 0.48 | 0 | 0 | 0 | 2.13 ± 3 | 5.1 | 0.198 | 48.9 | 63 | 60.4 | 56.7 | 64.6 ± 1.8 | 76.5 ± 2.8 | 83.7 | 40.6 | 14.2
C[C@@]1(C(=O)Nc2ccc(F)nc2)CCCN1c1nc(Nc2cc(C3CC3)n[nH]2)c2cccn2n1 (max concentration tested 10000 nM) | 7.91 | 9.41 | 14.5 | 16.2 | 14.5 ± 2.5 | 15.5 ± 0.72 | 13.1 | 8.67 | 25.8 | 3.23 | 7.13 | 9.9 | 9.5 ± 0.59 | 13 | 11.7 | 87.3 | 89.1 | 94.8 | 96.7 | 99.4 ± 1.5 | 92.1 ± 1.2 | 93.2 | 64 | 74.3
O=C(Nc1ccncc1)C(=O)c1cn(Cc2ccc(Cl)cc2)c2ccccc12 [Indibulin] (max concentration tested 10000 nM) | 2.56 | 10.5 | 11.2 | 10.5 | 15 ± 3.3 | 16.5 ± 0.54 | 14.4 | 20.1 | 10.2 | 0 | 5.82 | 7.54 | 10.8 ± 3.9 | 12.6 | 21.5 | 24.1 | 83.6 | 67.6 | 78.1 | 80.5 ± 4.1 | 93.04 ± 0.44 | 74.8 | 93 | 66.2
CCCCC(=O)OCC(=O)[C@]1(O)Cc2c(O)c3c(c(O)c2[C@@H](O[C@H]2C[C@H](NC(=O)C(F)(F)F)[C@H](O)[C@H](C)O2)C1)C(=O)c1c(OC)cccc1C3=O [Valrubicin] (max concentration tested 5000 nM) | 11.7 | 14.3 | 14 | 14.1 | 10.19 ± 0.1 | 14.22 ± 0.059 | 13.6 | 13.5 | 19.3 | 0 | 0 | 0 | 0.125 ± 0.18 | 0 | 0 | 97.5 | 101 | 95.1 | 98.5 | 92.5 ± 2.8 | 94.14 ± 0.67 | 97.2 | 97.7 | 100
O=NN(CCCl)C(=O)NC1CCCCC1 [Lomustine] (max concentration tested 10000 nM) | 0 | 0 | 0 | 0 | 0 | 0 | 0 | 0 | 0 | 0 | 0 | 0 | 0 | 0 | 0 | -0.39 | -15 | -0.952 | -3.35 | -7.84 ± 0.87 | -9.57 ± 4 | -8.13 | 0.864 | 0.78
COc1cc2c(cc1-c1c(C)noc1C)ncc1[nH]c(=O)n([C@H](C)c3ccccn3)c12 [I-BET151] (max concentration tested 10000 nM) | 5.14 | 7.97 | 7.53 | 7.44 | 8.57 ± 0.91 | 5.52 ± 1.1 | 7.98 | 3.63 | 7.27 | 0 | 0.0349 | 0 | 6.26 ± 2.9 | 3.3 | 0 | 58.5 | 69.1 | 63.4 | 67.2 | 80.9 ± 2.5 | 54.1 ± 0.65 | 69.7 | 39.3 | 63.4
Nc1nccc(-c2c(-c3ccc(F)cc3)ncn2C2CCCCC2)n1 (max concentration tested 10000 nM) | 0.55 | 0.99 | 0 | 0 | 0 | 0 | 0 | 0 | 3.26 | 0 | 0 | 0 | 0 | 0 | 0 | 21.5 | 29.1 | 9.97 | -0.333 | 2.64 ± 7.6 | -4.31 ± 12 | 5.9 | 1.02 | 33.7
CC(C)C(=O)Nc1ccc([N+](=O)[O-])c(C(F)(F)F)c1 [Flutamide] (max concentration tested 10000 nM) | 0 | 0 | 0 | 0 | 0 | 0 | 0 | 0 | 0 | 0 | 0 | 0 | 0 | 0 | 0 | 10.5 | -3.98 | 9.44 | 5.2 | 4.01 ± 0.74 | 5.56 ± 0.56 | 4.3 | 9.3 | -0.22
Cc1nc(Nc2ncc(C(=O)Nc3c(C)cccc3Cl)s2)cc(N2CCN(CCO)CC2)n1 [Dasatinib] (max concentration tested 1000 nM) | 0.97 | 7.09 | 8.49 | 5.78 | 12.3 ± 1.8 | 4.46 ± 0.87 | 10.2 | 11.7 | 4.94 | 0 | 0 | 0 | 1.53 ± 1.1 | 4.56 | 3.95 | 19.3 | 58.5 | 60 | 49.2 | 82.6 ± 2.6 | 30.9 ± 1.7 | 65.5 | 64.8 | 20.6
Cc1ccc(C(=O)N(CCCN)[C@@H](c2oc3cc(Cl)ccc3c(=O)c2Cc2ccccc2)C(C)C)cc1 (max concentration tested 100 nM) | 6.42 | 19 | 0 | 0 | 0.0057 ± 0.0081 | 0 | 0 | 0 | 18.9 | 0 | 0 | 0 | 0 | 0 | 0 | 26.9 | 87.1 | 7.2 | -19.5 | 5.6 ± 6.5 | -2.08 ± 8.3 | 5.16 | 2.24 | 76
COc1cc2c(Oc3ccc4[nH]c(C)cc4c3F)ncnc2cc1OCCCN1CCCC1 [Cediranib] (max concentration tested 1000 nM) | 1.71 | 0 | 0.0876 | 0 | 0.908 ± 0.43 | 0 | 0 | 0 | 0 | 0 | 0 | 0.638 | 0.112 ± 0.16 | 0.0254 | 0 | 20.1 | 1.32 | 12.1 | -10.7 | 19.9 ± 0.91 | -3.01 ± 12 | 8.47 | 4.34 | -10.3
CN1CCc2c(c3ccccc3n2Cc2ccc(C(=O)NO)cc2)C1 [Tubastatin A] (max concentration tested 10000 nM) | 3.48 | 3.88 | 1.74 | 1.75 | 3.45 ± 0.18 | 4.36 ± 0.37 | 1.84 | 3.1 | 4.65 | 0 | 0 | 0 | 0.928 ± 1.3 | 0 | 2.56 | 60.9 | 74.3 | 36.4 | 23.3 | 52.1 ± 7.6 | 80.8 ± 8.9 | 40.8 | 52.5 | 52.4
